In PMC4184574, “Enantioselectivity in the cytochrome P450-dependent conversion of tegafur to 5-fluorouracil in human liver microsomes” (Pharmacology Research & Perspectives, 2013):
Where “and” joins values, the source holds several entries; their conditions need not be identical. Identical values can stand only once.

Key:
Format in all cases: in vitro ADME
[1] = 5-FU formation from FT enantiomers in human hepatic microsomes (kinetic analysis, formation rate); conditions: for Km / Vmax: monophasic kinetics; for Km1 / Vmax1 / CLint1: high-affinity component; for CLint1: Vmax/Km; for Km2 / Vmax2: low-affinity component
Description: (§1) (pooled preparations from 20 donors; Kansas City, KS). […] Insect microsomes expressing only NADPH-P450 oxidoreductase and cytochrome b5 were also used as control. These enzymes were stored at −80°C until use.
(§2) 5-FU formed from FT was subjected to extensive metabolism by dihydropyrimidine dehydrogenase (DPD) contaminating human hepatic preparations. Therefore, a potent DPD inhibitor, CDHP, was always added to avoid the unexpected loss of 5-FU (Ikeda et al. [2000]; Yamamiya et al. [2010]). Incubation mixture for hepatic microsomal metabolism contained FT, microsomes (1 mg protein/mL), 0.1 mmol/L CDHP, and an NADPH-generating system consisting of 1.3 mmol/L β-NADP^+, 3.3 mmol/L glucose-6-phosphate, 3.3 mmol/L magnesium chloride, and 0.4 units glucose-6-phosphate dehydrogenase in 100 mmol/L Tris (pH 7.4). Metabolic reaction by S9 and cytosol (each 2 mg protein/mL) was carried out in 100 mmol/L phosphate (pH 7.4) because TPase requires phosphate ions for catalyzing the reaction. In some cases, insect microsomes expressing recombinant CYP isoforms (20 pmol/mL) were added to the incubation mixtures in either 50, 100 mmol/L phosphate (pH 7.4) or 100 mmol/L Tris (pH 7.4), depending on supplier's recommendation. […] The reaction for the assay of FT metabolism was initiated by adding the substrate, following preincubation for 5 min at 37°C. […] The incubation times of microsomes, cytosol, and S9 were 15, 15, and 30 min, respectively. After centrifugation, the supernatant was collected and stored at −80°C until the determination of 5-FU. Because a small portion of FT is nonenzymatically converted to 5-FU, the content of 5-FU spontaneously formed was subtracted from total yield obtained after incubation to correct the activity. The spontaneous degradation of FT to 5-FU was evaluated using enzymes inactivated by heating them at 100°C for 5 min.
(§3) Concentration of 5-FU was determined using a LC/MS/MS system. […] The mobile phase consisted of 10 mmol/L ammonium acetate/acetonitrile 10:90 (v/v). The MS/MS analysis was performed in negative ionization mode under multiple reaction monitoring (MRM) mode, using mass transitions, m/z 128.6/41.8 for 5-FU and m/z 130.6/42.8 for ^15N2-5-FU, an internal standard (IS). […] For quantification of 5-FU, the calibration curves were linear over the range 2–1000 ng/mL.
(§4) In determining kinetic parameters, FT concentration ranged from 0.03 to 10 mmol/L. All reactions were performed in a linear range of 5-FU formation with respect to protein or CYP concentrations and incubation time. Eadie–Hofstee plot analysis was used to characterize enzyme kinetics in which kinetic parameters were estimated by fitting the data to the following equations (1) or (2): [drawing 1] (1) [drawing 2] (2) where V is 5-FU formation rate, S is FT concentration in the incubation mixture, Km1 and Km2 are affinity constants for high- and low-affinity components, respectively, and Vmax1 and Vmax2 are maximum velocities for high- and low-affinity components, respectively.

CYP2E1 = target: T1, CYP2E1 (Homo sapiens, UniProt P05181); experiment: 5-FU formation from FT enantiomers by cDNA-expressed CYP2E1 (kinetics, velocity, RAF contribution); conditions: for CYP contribution: CYP2E1, RAF method, 30 μmol/L; for CLint / Km / Vmax: cDNA-expressed CYP2E1
T1 construct: purchased BD Gentest; host or cells: insect cells (baculovirus)
T1 sequence (P05181 whole entry): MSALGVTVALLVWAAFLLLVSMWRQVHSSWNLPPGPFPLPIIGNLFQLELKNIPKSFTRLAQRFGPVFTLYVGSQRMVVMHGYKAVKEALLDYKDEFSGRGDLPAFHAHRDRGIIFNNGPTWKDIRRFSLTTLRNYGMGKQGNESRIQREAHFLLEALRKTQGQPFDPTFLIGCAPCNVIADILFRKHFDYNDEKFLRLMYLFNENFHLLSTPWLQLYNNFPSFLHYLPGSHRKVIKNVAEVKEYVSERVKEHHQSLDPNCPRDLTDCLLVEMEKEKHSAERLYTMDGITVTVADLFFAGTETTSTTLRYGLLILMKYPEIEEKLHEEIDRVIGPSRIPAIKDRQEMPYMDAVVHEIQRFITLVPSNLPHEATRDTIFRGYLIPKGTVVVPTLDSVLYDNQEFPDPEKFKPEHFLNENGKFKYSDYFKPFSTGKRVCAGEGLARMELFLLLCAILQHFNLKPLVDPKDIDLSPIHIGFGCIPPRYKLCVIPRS
Description: as §1, §2, §3, §4
(§5) The contribution of CYPn to the metabolism of R- and S-FT at their concentration of 30 μmol/L was subsequently calculated using equation (4). [drawing 4] (4) VCYPn = 5-FU formation rate in cDNA-expressed CYPn.

CYP2C19 = target: T2, CYP2C19 (Homo sapiens, UniProt P33261); experiment: 5-FU formation from FT enantiomers by cDNA-expressed CYP2C19 (kinetics, velocity, RAF contribution); conditions: for CYP contribution: CYP2C19, RAF method, 30 μmol/L
T2 construct: purchased BD Gentest; host or cells: insect cells (baculovirus)
T2 sequence (P33261 whole entry): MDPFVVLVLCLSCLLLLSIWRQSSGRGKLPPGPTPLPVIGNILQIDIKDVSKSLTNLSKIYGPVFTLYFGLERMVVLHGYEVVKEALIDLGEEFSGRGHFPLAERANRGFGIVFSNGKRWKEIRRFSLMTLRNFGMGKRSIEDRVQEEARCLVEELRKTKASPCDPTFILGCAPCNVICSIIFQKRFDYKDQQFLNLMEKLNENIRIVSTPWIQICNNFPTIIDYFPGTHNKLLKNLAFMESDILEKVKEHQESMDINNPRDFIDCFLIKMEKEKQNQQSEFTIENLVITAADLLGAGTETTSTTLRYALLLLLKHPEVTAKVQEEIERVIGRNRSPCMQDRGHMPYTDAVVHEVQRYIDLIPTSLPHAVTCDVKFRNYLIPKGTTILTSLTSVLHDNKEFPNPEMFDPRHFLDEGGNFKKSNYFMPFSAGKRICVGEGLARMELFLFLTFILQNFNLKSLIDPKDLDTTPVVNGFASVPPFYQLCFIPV
Description: as §1, §2, §3, §4, §5

[2] = Mean ± SD of five human livers, total (for R-FT sum of high- and low-affinity components)
[3] = microsomes HG32, total (for R-FT sum of high- and low-affinity components)
[4] = microsomes HH31, total (for R-FT sum of high- and low-affinity components)
[5] = microsomes HH74, total (for R-FT sum of high- and low-affinity components)
[6] = microsomes HH94, total (for R-FT sum of high- and low-affinity components)
[7] = human hepatic microsomes, higher

Work on `O=c1[nH]c(=O)n([C@@H]2CCCO2)cc1F` [S-FT] yielded a Km ([1]; Mean ± SD of five human livers) of 1600 ± 600 µM, a Vmax ([1]; Mean ± SD of five human livers) of 1021 ± 692 pmol/min/mg and a CLint [1, 2] of 0.73 ± 0.53 µL/min/mg. It also gave a Km ([1]; microsomes HG32) of 1400 µM, a Vmax ([1]; microsomes HG32) of 468 pmol/min/mg and a CLint [1, 3] of 0.34 µL/min/mg. For the same compound, the Km ([1]; microsomes HH31) was 1400 µM, the Vmax ([1]; microsomes HH31) was 2205 pmol/min/mg and the CLint [1, 4] was 1.6 µL/min/mg. The Km ([1]; microsomes HH74) was 2600 µM, the Vmax ([1]; microsomes HH74) was 583 pmol/min/mg and the CLint [1, 5] was 0.23 µL/min/mg. For the same compound, the Km ([1]; microsomes HH81) was 1100 µM, the Vmax ([1]; microsomes HH81) was 915 pmol/min/mg and the CLint ([1]; microsomes HH81, total) was 0.81 µL/min/mg. It also gave a Km ([1]; microsomes HH94) of 1300 µM, a Vmax ([1]; microsomes HH94) of 936 pmol/min/mg and a CLint [1, 6] of 0.71 µL/min/mg. It also gave a CYP contribution (CYP2E1) of 7.0%, a CLint (CYP2E1) of 1.3 nL min^−1 pmol^−1 CYP and a Km (CYP2E1) of 3700 ± 200 µM. The Vmax (CYP2E1) was 4.7 ± 0.2 pmol min^−1 pmol^−1 CYP, the CYP contribution (CYP2C19) was 3.9% and the CLint (CYP2C19; cDNA-expressed CYP2C19) was 0.90 nL min^−1 pmol^−1 CYP. For the same compound, the Km (CYP2C19; cDNA-expressed CYP2C19) was 6200 ± 300 µM and the Vmax (CYP2C19; cDNA-expressed CYP2C19) was 5.5 ± 0.2 pmol min^−1 pmol^−1 CYP.
In the case of `O=c1[nH]c(=O)n([C@H]2CCCO2)cc1F` [R-FT], the Km1 ([1]; Mean ± SD of five human livers) is reported as 0.12 mmol/L and 0.12 ± 0.03 mmol/L, the Vmax1 ([1]; Mean ± SD of five human livers) is reported as 838 ± 669 pmol/min/mg and the CLint1 ([1]; Mean ± SD of five human livers) is reported as 6.2 ± 4.4 µL/min/mg. The CLint [1, 2] was 6.4 ± 4.4 µL/min/mg, the Km2 ([1]; Mean ± SD of human livers) was 2.7 mmol/L and 2.7 ± 0.3 mmol/L and the Vmax2 ([1]; Mean ± SD of human livers) was 613 ± 236 pmol/min/mg. The “CLint (Vmax/Km) of high-affinity component compared with the low-affinity one” value [1, 7] was “approximately 27 fold”, the “CLint value of R-FT relative to that of S-FT” value [1, 7] was 8.8 fold and the Km1 ([1]; microsomes HG32) was 0.11 mmol/L. The Vmax1 ([1]; microsomes HG32) was 355 pmol/min/mg, the CLint1 ([1]; microsomes HG32) was 3.2 µL/min/mg and the Km2 ([1]; microsomes HG32) was 3.0 mmol/L. It also gave a Vmax2 ([1]; microsomes HG32) of 302 pmol/min/mg, a CLint [1, 3] of 3.3 µL/min/mg and a Km1 ([1]; microsomes HH31) of 0.14 mmol/L. For the same compound, the Vmax1 ([1]; microsomes HH31) was 1816 pmol/min/mg, the CLint1 ([1]; microsomes HH31) was 13 µL/min/mg and the Km2 ([1]; microsomes HH31) was 2.9 mmol/L. The Vmax2 ([1]; microsomes HH31) was 859 pmol/min/mg, the CLint [1, 4] was 13 µL/min/mg and the Km1 ([1]; microsomes HH74) was 0.093 mmol/L. For the same compound, the Vmax1 ([1]; microsomes HH74) was 146 pmol/min/mg, the CLint1 ([1]; microsomes HH74) was 1.6 µL/min/mg and the Km2 ([1]; microsomes HH74) was 2.7 mmol/L. It also gave a Vmax2 ([1]; microsomes HH74) of 709 pmol/min/mg, a CLint [1, 5] of 1.8 µL/min/mg and a Km1 ([1]; microsomes HH81) of 0.16 mmol/L. It also gave a Vmax1 ([1]; microsomes HH81) of 1162 pmol/min/mg, a CLint1 ([1]; microsomes HH81) of 7.1 µL/min/mg and a CLint ([1]; microsomes HH81, total) of 7.1 µL/min/mg. It also gave a Km1 ([1]; microsomes HH94) of 0.12 mmol/L, a Vmax1 ([1]; microsomes HH94) of 712 pmol/min/mg and a CLint1 ([1]; microsomes HH94) of 6.1 µL/min/mg. For the same compound, the Km2 ([1]; microsomes HH94) was 2.3 mmol/L, the Vmax2 ([1]; microsomes HH94) was 583 pmol/min/mg and the CLint [1, 6] was 6.4 µL/min/mg. The “contribution of the high-affinity component to the conversion to 5-FU” value ([1]; substrate concentration well below the Km value) was “over 90%”, the CYP contribution (CYP2E1) was 4.3% and the CLint (CYP2E1) was 2.3 nL min^−1 pmol^−1 CYP. It also gave a Km (CYP2E1) of 3600 ± 300 µM, a Vmax (CYP2E1) of 8.4 ± 0.6 pmol min^−1 pmol^−1 CYP and a CYP contribution (CYP2C19) of 0.59%. For the same compound, the Km (CYP2C19; cDNA-expressed CYP2C19) was greater than 10000 µM.
